{
  "source": "patent US20120165384A1",
  "about": "“INHIBITION OF HISTONE ACETYLTRANSFERASES BY CTK7A AND METHODS THEREOF” (JAWAHARLAL NEHRU CENTRE FOR ADVANCED SCIENTIFIC RESEARCH, priority 2009, published 2012)",
  "key": {"p300": {"target": "p300 (Homo sapiens, UniProt Q09472)", "sequence (Q09472 whole entry, species assumed)": "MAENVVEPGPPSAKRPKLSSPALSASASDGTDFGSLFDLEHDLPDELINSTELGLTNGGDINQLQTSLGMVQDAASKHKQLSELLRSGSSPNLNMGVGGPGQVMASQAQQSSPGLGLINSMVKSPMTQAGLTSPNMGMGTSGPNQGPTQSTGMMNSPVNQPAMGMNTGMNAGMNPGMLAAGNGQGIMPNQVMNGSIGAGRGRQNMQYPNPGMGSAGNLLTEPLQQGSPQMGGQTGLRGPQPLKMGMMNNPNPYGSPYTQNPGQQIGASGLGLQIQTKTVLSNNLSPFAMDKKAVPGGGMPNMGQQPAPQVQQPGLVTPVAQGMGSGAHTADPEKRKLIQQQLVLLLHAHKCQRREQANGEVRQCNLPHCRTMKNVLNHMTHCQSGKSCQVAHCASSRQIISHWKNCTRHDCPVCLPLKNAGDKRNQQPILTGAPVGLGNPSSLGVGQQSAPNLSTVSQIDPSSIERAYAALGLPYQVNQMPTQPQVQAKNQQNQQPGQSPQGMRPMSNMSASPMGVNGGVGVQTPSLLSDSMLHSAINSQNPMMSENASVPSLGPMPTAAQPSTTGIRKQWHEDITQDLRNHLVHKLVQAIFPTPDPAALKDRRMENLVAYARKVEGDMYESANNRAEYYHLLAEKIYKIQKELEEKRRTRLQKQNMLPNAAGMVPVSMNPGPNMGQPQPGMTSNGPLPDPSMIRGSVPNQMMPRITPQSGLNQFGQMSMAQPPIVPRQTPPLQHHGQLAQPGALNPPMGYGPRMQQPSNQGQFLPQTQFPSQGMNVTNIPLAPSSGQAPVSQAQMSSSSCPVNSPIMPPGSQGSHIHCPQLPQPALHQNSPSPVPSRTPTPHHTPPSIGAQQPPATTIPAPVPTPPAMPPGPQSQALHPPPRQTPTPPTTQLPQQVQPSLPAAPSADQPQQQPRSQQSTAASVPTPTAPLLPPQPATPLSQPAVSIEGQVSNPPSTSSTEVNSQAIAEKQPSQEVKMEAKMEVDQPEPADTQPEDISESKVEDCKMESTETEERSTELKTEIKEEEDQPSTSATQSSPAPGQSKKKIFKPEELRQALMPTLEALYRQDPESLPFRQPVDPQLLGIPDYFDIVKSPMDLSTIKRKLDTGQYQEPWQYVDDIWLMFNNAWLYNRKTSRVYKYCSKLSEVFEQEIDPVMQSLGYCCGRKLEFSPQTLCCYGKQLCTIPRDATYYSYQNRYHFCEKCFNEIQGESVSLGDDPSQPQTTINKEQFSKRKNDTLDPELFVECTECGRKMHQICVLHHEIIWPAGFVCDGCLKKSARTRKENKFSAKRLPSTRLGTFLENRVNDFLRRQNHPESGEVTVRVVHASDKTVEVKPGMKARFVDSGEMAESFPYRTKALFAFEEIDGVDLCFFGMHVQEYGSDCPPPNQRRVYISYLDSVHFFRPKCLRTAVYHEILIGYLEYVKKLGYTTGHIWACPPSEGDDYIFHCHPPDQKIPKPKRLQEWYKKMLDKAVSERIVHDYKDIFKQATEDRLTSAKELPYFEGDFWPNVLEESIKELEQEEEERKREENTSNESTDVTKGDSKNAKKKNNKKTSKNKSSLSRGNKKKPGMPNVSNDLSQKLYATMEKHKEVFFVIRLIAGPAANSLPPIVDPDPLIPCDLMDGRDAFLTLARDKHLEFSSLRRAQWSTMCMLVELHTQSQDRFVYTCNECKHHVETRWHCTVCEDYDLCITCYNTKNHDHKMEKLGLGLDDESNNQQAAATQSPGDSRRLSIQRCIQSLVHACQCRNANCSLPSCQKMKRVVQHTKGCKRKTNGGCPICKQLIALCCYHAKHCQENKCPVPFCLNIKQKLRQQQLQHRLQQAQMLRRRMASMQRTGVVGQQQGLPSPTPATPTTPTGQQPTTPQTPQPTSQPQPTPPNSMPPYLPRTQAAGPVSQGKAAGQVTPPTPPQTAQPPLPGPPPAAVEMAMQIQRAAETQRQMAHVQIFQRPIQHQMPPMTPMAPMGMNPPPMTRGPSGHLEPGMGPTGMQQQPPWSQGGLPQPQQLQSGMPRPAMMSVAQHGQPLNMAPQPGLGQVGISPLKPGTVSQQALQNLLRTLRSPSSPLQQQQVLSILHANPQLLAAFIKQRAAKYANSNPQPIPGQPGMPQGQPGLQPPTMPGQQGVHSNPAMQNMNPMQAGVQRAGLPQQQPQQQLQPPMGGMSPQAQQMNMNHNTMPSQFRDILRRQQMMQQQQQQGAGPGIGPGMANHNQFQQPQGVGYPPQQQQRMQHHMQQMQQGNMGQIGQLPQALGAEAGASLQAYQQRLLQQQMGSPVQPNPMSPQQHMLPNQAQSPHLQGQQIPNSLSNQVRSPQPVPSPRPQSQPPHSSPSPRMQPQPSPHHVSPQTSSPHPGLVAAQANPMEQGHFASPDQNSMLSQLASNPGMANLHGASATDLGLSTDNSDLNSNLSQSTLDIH", "assay": "p300 autoacetylation enhanced by cocktail of HDAC inhibitors (immunoprecipitation)", "assay_type": "cell-based", "description": "Whole cell extract were prepared using RIPA buffer as mentioned above. The pre-blocked protein-G sepharose-bound antibody (4 μg) was incubated with 500 μg whole cell lysate overnight at 4° C. After extensive washes, bead-bound protein were analysed by western blotting with indicated antibodies. For HDAC inhibitors treatment, 5 mM sodium butyrate, 5 mM nicotiamide and 100 ng ml^−1 TSA were added 10 h before cells were harvest^36."}, "PCAF": {"target": "T1, PCAF (Homo sapiens, UniProt Q92831)", "T1 construct": "Recombinant baculovirus expressing full-length FLAG-tagged CARM1,CBP and PCAF; FLAG; made in house; host or cells: baculovirus-infected Sf21 cells", "T1 sequence (Q92831 whole entry, species assumed)": "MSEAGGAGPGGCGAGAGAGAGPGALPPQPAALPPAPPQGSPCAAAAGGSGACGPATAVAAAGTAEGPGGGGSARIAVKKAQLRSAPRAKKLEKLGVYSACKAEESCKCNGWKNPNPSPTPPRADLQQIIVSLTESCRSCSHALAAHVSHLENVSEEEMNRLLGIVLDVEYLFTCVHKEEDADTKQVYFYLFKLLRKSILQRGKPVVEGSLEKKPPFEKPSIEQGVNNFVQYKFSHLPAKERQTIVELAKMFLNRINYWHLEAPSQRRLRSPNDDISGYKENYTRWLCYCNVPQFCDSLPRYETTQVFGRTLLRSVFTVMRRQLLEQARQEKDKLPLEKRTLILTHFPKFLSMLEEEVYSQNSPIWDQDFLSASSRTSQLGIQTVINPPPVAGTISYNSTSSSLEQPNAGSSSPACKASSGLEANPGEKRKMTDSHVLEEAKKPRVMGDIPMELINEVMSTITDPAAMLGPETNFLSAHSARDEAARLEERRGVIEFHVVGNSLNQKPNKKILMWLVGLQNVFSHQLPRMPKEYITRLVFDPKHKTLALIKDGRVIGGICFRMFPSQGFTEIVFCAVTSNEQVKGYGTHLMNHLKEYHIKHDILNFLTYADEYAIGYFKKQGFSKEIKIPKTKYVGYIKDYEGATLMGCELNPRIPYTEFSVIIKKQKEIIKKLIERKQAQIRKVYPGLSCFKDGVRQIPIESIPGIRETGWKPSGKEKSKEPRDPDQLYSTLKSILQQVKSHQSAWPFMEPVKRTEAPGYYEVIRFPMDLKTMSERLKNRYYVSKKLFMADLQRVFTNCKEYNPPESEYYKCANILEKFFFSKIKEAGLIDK", "assay": "HAT assay with recombinant PCAF", "assay_type": "biochemical", "description": "(§1) Recombinant baculovirus expressing full-length FLAG-tagged CARM1,CBP and PCAF were purified by immunoaffinity chromatography using M2-agarose beads followed by elution with FLAG peptide. Baculovirus-expressed full-length hexahistidine-tagged p300, and G9a were purified using Ni-NTA affinity chromatography as described previously^30.\nHAT gel fluorography/autoradiography assays were performed as previously reported^30. Kinetic analysis of p300 HAT inhibition was performed as reported earlier^31 in the presence of (0, 30 and 50 μM) CTK7A. The obtained values were plotted as a lineweaver burk plot using Graphpad Prism software. For p300 Autoacetylation assay, reactions of p300 full length (80 ng) were carried out in HAT assay buffer at 30° C. for 10 minutes with or without the protein (NPM1) followed by addition of 1 μl of 4.7 Ci/mmol [^3H] acetyl CoA (NEN-PerkinElmer) and were further incubated for another 10 min in a 30 μl reaction. GAPDH was used as positive control. The radio-labeled acetylated p300 were processed by fluorography followed by autoradiography."}, "CARM1": {"target": "T2, CARM1 (Homo sapiens, UniProt Q86X55)", "T2 construct": "Recombinant baculovirus expressing full-length FLAG-tagged CARM1,CBP and PCAF; FLAG; made in house; host or cells: baculovirus-infected Sf21 cells", "T2 sequence (Q86X55 1-608)": "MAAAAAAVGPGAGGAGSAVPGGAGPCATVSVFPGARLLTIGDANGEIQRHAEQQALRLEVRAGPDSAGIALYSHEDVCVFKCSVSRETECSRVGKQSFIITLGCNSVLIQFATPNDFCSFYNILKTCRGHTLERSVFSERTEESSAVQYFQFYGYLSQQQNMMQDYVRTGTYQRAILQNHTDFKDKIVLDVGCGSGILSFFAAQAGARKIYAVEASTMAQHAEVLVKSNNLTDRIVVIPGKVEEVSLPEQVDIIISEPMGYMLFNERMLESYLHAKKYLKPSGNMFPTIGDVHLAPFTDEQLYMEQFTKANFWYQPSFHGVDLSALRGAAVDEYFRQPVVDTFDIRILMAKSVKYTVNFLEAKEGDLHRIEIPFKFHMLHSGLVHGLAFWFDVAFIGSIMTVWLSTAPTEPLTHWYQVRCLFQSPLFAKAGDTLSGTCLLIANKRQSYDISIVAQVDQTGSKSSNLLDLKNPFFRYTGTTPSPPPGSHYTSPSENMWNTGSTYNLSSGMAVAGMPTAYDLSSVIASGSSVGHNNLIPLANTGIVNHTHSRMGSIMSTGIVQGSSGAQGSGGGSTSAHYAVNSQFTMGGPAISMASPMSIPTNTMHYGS", "assay": "Histone methyltransferase (HMTase) assay, CARM1", "assay_type": "biochemical", "conditions": "even at 100 μM", "description": "as §1\nThe deacetylation assay was performed as per standard protocol^31. For SirT2 deacetylase assay, 50 ng of bacterially expressed, recombinant enzyme was added in the presence or absence of cofactor NAD^+. HMTase was performed as reported earlier^31."}, "KB cell tumors": {"test_system": "KB cell tumors", "assay": "Immunohistochemistry of KB cell tumors from treated mice", "assay_type": "in vivo, nude mice (BALB/c)", "description": "After deparafinizing, slides were rinsed in ethanol. Antigen retrieval was performed with sodium citrate (10 mM pH 6.0) for 5 min at 98° C. The staining was performed with the Envision kit (Dako, Denmark). Counterstaining was performed with Mayer's haematoxylin, and mounted in DPX and air dried. Each of the sample specimens was pathologically confirmed before carrying out the immunohistochemistry. For statistical analysis, cells (100 cells from a total of 5-6 independent fields) were counted from both normal and tumor tissue sections and scored for percentage of positive cells (brown colour) for the indicated antibodies. For comparison one-way ANOVA was performed using “Sigmaplot Software”. P-value<0.01 was considered as statistically significant, n=31.\n(§2) Animal experiments were performed with the approval by authorized ethics Committee. Sixteen nude mice (BALB/c) were included in the experiments (10 male and 6 female mice). Mice were kept in isolators in a pathogen free environment. All nude mice were 3-4 weeks old at the start of the experiments. KB cells, 2×10^6 cells were inoculated in each mice in the right and left flanks, respectively. Mice were then divided in two groups (5 males and 3 females) in each group. After the tumors grown to palpable in size, CTK7A treatment were given intraperitoneally (i.p) with 100 mg/kg body weight/twice a day. Tumors were measured once in three days with a caliper and their volumes were calculated by the formula: 0.52×D1×(D2)^2, where ‘D1’ and ‘D2’ are, respectively, the longest and shortest dimension. The last dose of the compound (CTK7A) was administered four hour before sacrificing it. Tumors were removed and put into liquid nitrogen or were fixed in 10% formalin for 1-2 h to make blocks to be used for IHC. For comparing tumor sizes between treated and control one-way ANOVA was performed using “Sigmaplot Software”. P-value<0.05 was considered as statistically significant."}, "KB cell xenografts": {"test_system": "KB cell xenografts", "assay": "Xenograft growth assay", "assay_type": "in vivo, nude mice (BALB/c)", "conditions": "i.p. 100 mg/kg body weight/twice a day; p<0.05", "description": "as §2"}, "Solubility test in water": {"assay": "Solubility test in water", "assay_type": "physicochemical", "description": "To a solution of curcumin in methanol (10 mg, 0.027 Mmol) […]. After incubation for 24 h, the solvent was evaporated in vacuum. The residue […] was purified with repeated recrystallization and filtration method using TLC (CHCl3/MeOH=4:1; Rf=0.5). This gave CTK7 as a dark orange powder (7.18 mg, 55%) which was analyzed by H^1 NMR, Melting point test, Solubility test and ESI-MS.\nTo a solution of CTK7 in methanol (50 mg, 0.1031 mmol), (10 ml) of Sodium ethoxide was added ([…], 0.1175 mmol) and the reaction mixture was stirred at room temperature for 90 minutes. The solvent was evaporated in vacuum and the residue was washed with hexane, diethyl ether and ethyl acetate. Product was confirmed through H^1 NMR, Solubility test, melting point."}},
  "data": [
    {"smiles": "COc1cc([O-])cc(C=CC2=NN(c3ccc(C(=O)[O-])cc3)C(C=Cc3cc([O-])cc(OC)c3)C2)c1.[Na+].[Na+].[Na+]", "note": "(stereo not drawn) [CTK7A, Sodium 4-(3,5-bis(3-methoxy-5-oxidostyryl)-4,5dihydro-1H-pyrazole-1-yl)benzoate]", "values": [
      {"measurement": "inhibition of enhanced autoacetylation of p300", "setting": "p300", "result": "inhibit"},
      {"measurement": "inhibition of PCAF HAT activity", "setting": "PCAF", "result": "inhibit"},
      {"measurement": "effect on CARM1 activity", "setting": "CARM1", "result": "unaffected"},
      {"measurement": "levels of COX2 in tumors (IHC)", "setting": "KB cell tumors; i.p. 100 mg/kg twice a day", "result": "suppressed"},
      {"measurement": "levels of GAPDH in tumors (IHC)", "setting": "KB cell tumors; i.p. 100 mg/kg twice a day", "result": "down regulated"},
      {"measurement": "levels of H3K9, K14 acetylation (H3AcK9AcK14) in tumors (IHC)", "setting": "KB cell tumors; i.p. 100 mg/kg twice a day", "result": "decreased"},
      {"measurement": "levels of NPM1 in tumors (IHC)", "setting": "KB cell tumors; i.p. 100 mg/kg twice a day", "result": "down regulated"},
      {"measurement": "levels of ac-p300 in tumors (IHC)", "setting": "KB cell tumors; i.p. 100 mg/kg twice a day", "result": "decreased"},
      {"measurement": "levels of iNOS in tumors (IHC)", "setting": "KB cell tumors; i.p. 100 mg/kg twice a day", "result": "down regulated"},
      {"measurement": "p300 expression in tumors (IHC)", "setting": "KB cell tumors; i.p. 100 mg/kg twice a day", "result": "marginal affect"},
      {"measurement": "proliferation marker Ki-67 in tumors (IHC)", "setting": "KB cell tumors; i.p. 100 mg/kg twice a day", "result": "down regulation"},
      {"measurement": "nuclear GAPDH in tumors (IHC)", "setting": "KB cell tumors; present in control mice", "result": "absent or very faintly present"},
      {"measurement": "inhibition of H3K14 acetylation compared with H3K9 acetylation in tumors (IHC)", "setting": "KB cell tumors; site specific antibodies", "result": "more potently"},
      {"measurement": "KB cell tumors smaller than in control untreated mice", "setting": "KB cell xenografts", "result": 50, "unit": "%"},
      {"measurement": "solubility in water", "setting": "Solubility test in water", "result": "Soluble"}
    ]}
  ]
}
